{"source": "patent US9018248B2", "about": "“Fatty acid derivatives of catechins and methods of their use” (Genesis Group Inc., priority 2010, dated 2015)", "key": {"iNOS": {"tested_on": "iNOS", "experiment": "iNOS protein expression in LPS-stimulated RAW 264.7 macrophages (western blot)", "type": "cell-based, murine", "details": "LPS 100 ng/ml, RAW 264.7, western blot; 20 and 40 μM for 1a-1c", "procedure": "RAW 264.7 cells were cultured in Rosewell Park Memorial Institute (RPMI) 1640 media (without phenol red) supplemented with 10% endotoxin-free, heat-inactivated fetal calf serum, 100 units/ml penicillin, and 100 μg/ml streptomycin. When the cells reached a density of 2-3×10^6 cells/ml, they were activated by incubation in a medium containing E. coli lipopolysaccharide (LPS) (100 ng/ml). Various concentrations of compounds of the disclosure in dimethyl sulphoxide (DMSO) were added together with LPS. Cells were treated with 0.05% DMSO as the vehicle control. The stimulated murine macrophage cell line RAW 264.7 cells were washed with PBS and lysed in an ice-cold RIPA buffer (Tris-HCl, pH 7.2, 25 mM; 0.1% SDS; 1% Triton X-100; 1% sodium deoxycholate; 0.15 M NaCl; 1 mM EDTA) containing 1 mM phenylmethyl sulphonyl fluoride (PMSF), 10 μg/mL aprotinin, 1 mM sodium ortho-vanadate, and 5 μg/mL leupeptin. Protein concentrations were determined using the BCA method (Pierce, Rockford, Ill.). The samples (50 μg of protein) were mixed with 5-fold of sample buffer containing 0.3 M Tris-HCl (pH 6.8), 25% 2-mercaptoethanol, 12% sodium dodecyl sulphate (SDS), 25 mM EDTA, 20% glycerol, and 0.1% bromophenol blue. The mixtures were boiled at 100° C. for 5 min, prerun on a stacking gel, and then resolved by 12% SDS-polyacrylamide minigels at a constant current of 20 mA. For western blot, proteins on the gel were electro-transferred onto a […] immobile polyvinylidene fluoride (PVDF) membrane with a transfer buffer composed of 25 mM Tris-HCl (pH 8.9), 192 mM glycine, and 20% methanol, as described by Pan et al. (2000). […] The densities of the bands were quantitated using a densitometer (AlphaImager 2200 System). […] (7b) Inhibition Against LPS-Induced NO Production in RAW 264.7 Macrophage The LPS-induced NO production by the macrophages was determined as nitrite concentration in the culture medium according to the Griess reaction. […] The absorbance of the mixture at 550 nm was measured with an ELISA plate reader (Dynatech MR-7000; Dynatech Laboratories, Chantilly, Va., USA). […]"}, "[1]": {"tested_on": "LPS-induced NO production", "experiment": "LPS-induced NO production in RAW 264.7 macrophage (Griess reaction)", "type": "cell-based, murine", "details": "LPS-stimulated RAW264.7 macrophages", "procedure": "RAW 264.7 cells were cultured in Rosewell Park Memorial Institute (RPMI) 1640 media (without phenol red) supplemented with 10% endotoxin-free, heat-inactivated fetal calf serum, 100 units/ml penicillin, and 100 μg/ml streptomycin. When the cells reached a density of 2-3×10^6 cells/ml, they were activated by incubation in a medium containing E. coli lipopolysaccharide (LPS) (100 ng/ml). Various concentrations of compounds of the disclosure in dimethyl sulphoxide (DMSO) were added together with LPS. Cells were treated with 0.05% DMSO as the vehicle control. The stimulated murine macrophage cell line RAW 264.7 cells were washed with PBS and lysed in an ice-cold RIPA buffer (Tris-HCl, pH 7.2, 25 mM; 0.1% SDS; 1% Triton X-100; 1% sodium deoxycholate; 0.15 M NaCl; 1 mM EDTA) containing 1 mM phenylmethyl sulphonyl fluoride (PMSF), 10 μg/mL aprotinin, 1 mM sodium ortho-vanadate, and 5 μg/mL leupeptin. Protein concentrations were determined using the BCA method (Pierce, Rockford, Ill.). The samples (50 μg of protein) were mixed with 5-fold of sample buffer containing 0.3 M Tris-HCl (pH 6.8), 25% 2-mercaptoethanol, 12% sodium dodecyl sulphate (SDS), 25 mM EDTA, 20% glycerol, and 0.1% bromophenol blue. The mixtures were boiled at 100° C. for 5 min, prerun on a stacking gel, and then resolved by 12% SDS-polyacrylamide minigels at a constant current of 20 mA. For western blot, proteins on the gel were electro-transferred onto a […] immobile polyvinylidene fluoride (PVDF) membrane with a transfer buffer composed of 25 mM Tris-HCl (pH 8.9), 192 mM glycine, and 20% methanol, as described by Pan et al. (2000). Membrane blocking was then carried out at room temperature for 1 h in blocking solution (20 mM Tris-HCl pH 7.4, 125 mM NaCl, 0.2% Tween 20, 1% bovine serum albumin, and 0.1% sodium azide). The membrane was incubated with the primary antibody of iNOS and COX-2 at 4° C. overnight. The membranes were subsequently probed with selected IgG antibody conjugated to horseradish peroxidase (Transduction Laboratories, Lexington, Ky.) and visualized using enhanced chemiluminescence (ECL, Amersham). The densities of the bands were quantitated using a densitometer (AlphaImager 2200 System). All the membranes were stripped and reprobed for β-actin (Sigma Chemical Co., St. Louis, Mo.) as loading control. […] The inhibition of iNOS induction by compounds of the disclosure may be due to down regulation of iNOS gene expression. […] (7b) Inhibition Against LPS-Induced NO Production in RAW 264.7 Macrophage The LPS-induced NO production by the macrophages was determined as nitrite concentration in the culture medium according to the Griess reaction. […] The absorbance of the mixture at 550 nm was measured with an ELISA plate reader (Dynatech MR-7000; Dynatech Laboratories, Chantilly, Va., USA). […]"}, "PGE2 production": {"tested_on": "PGE2 production", "experiment": "PGE2 production in LPS-stimulated RAW264.7 macrophages (EIA)", "type": "cell-based, mouse", "details": "FIG. 10", "excerpt": "The level of PGE2 released into the culture medium was quantified by a specific enzyme immunoassay (EIA) method using a ACE™ EIA kit according to the manufacturer's instructions. FIG. 10 illustrates that the production of the inflammatory mediator PGE2 was inhibited by 10a (EGCG-DPA). The EGCG ester 10a has improved lipophilicity and cellular absorption, and therefore provides synergistic effects with respect to the DPA (a competitive inhibitor against the omega-6 fatty acid arachidonic acid) for the COX enzymes) and EGCG (COX-2 inhibitor) moieties."}, "COX-2": {"tested_on": "COX-2", "experiment": "COX-2 protein expression in LPS-stimulated RAW 264.7 macrophages (western blot)", "type": "cell-based, murine", "details": "LPS 100 ng/ml, RAW 264.7, western blot", "procedure": "RAW 264.7 cells were cultured in Rosewell Park Memorial Institute (RPMI) 1640 media (without phenol red) supplemented with 10% endotoxin-free, heat-inactivated fetal calf serum, 100 units/ml penicillin, and 100 μg/ml streptomycin. When the cells reached a density of 2-3×10^6 cells/ml, they were activated by incubation in a medium containing E. coli lipopolysaccharide (LPS) (100 ng/ml). Various concentrations of compounds of the disclosure in dimethyl sulphoxide (DMSO) were added together with LPS. Cells were treated with 0.05% DMSO as the vehicle control. The stimulated murine macrophage cell line RAW 264.7 cells were washed with PBS and lysed in an ice-cold RIPA buffer (Tris-HCl, pH 7.2, 25 mM; 0.1% SDS; 1% Triton X-100; 1% sodium deoxycholate; 0.15 M NaCl; 1 mM EDTA) containing 1 mM phenylmethyl sulphonyl fluoride (PMSF), 10 μg/mL aprotinin, 1 mM sodium ortho-vanadate, and 5 μg/mL leupeptin. Protein concentrations were determined using the BCA method (Pierce, Rockford, Ill.). The samples (50 μg of protein) were mixed with 5-fold of sample buffer containing 0.3 M Tris-HCl (pH 6.8), 25% 2-mercaptoethanol, 12% sodium dodecyl sulphate (SDS), 25 mM EDTA, 20% glycerol, and 0.1% bromophenol blue. The mixtures were boiled at 100° C. for 5 min, prerun on a stacking gel, and then resolved by 12% SDS-polyacrylamide minigels at a constant current of 20 mA. For western blot, proteins on the gel were electro-transferred onto a […] immobile polyvinylidene fluoride (PVDF) membrane with a transfer buffer composed of 25 mM Tris-HCl (pH 8.9), 192 mM glycine, and 20% methanol, as described by Pan et al. (2000). Membrane blocking was then carried out at room temperature for 1 h in blocking solution (20 mM Tris-HCl pH 7.4, 125 mM NaCl, 0.2% Tween 20, 1% bovine serum albumin, and 0.1% sodium azide). The membrane was incubated with the primary antibody of iNOS and COX-2 at 4° C. overnight. The membranes were subsequently probed with selected IgG antibody conjugated to horseradish peroxidase (Transduction Laboratories, Lexington, Ky.) and visualized using enhanced chemiluminescence (ECL, Amersham). The densities of the bands were quantitated using a densitometer (AlphaImager 2200 System). All the membranes were stripped and reprobed for β-actin (Sigma Chemical Co., St. Louis, Mo.) as loading control. […] The inhibition of iNOS induction by compounds of the disclosure may be due to down regulation of iNOS gene expression. EGCG and compounds of the disclosure with antioxidant activities may inhibit the ROS/RNS-mediated activation of NF-κB, the transcription factor that promotes gene expression of iNOS. […] The difference in their ability to inhibit production of iNOS and COX-2 may be due to other mechanisms involved in addition to blocking the NF-κB signalling pathway. EGCG and its derivatives may also suppress the cytokine production by breaking down the mRNA and protein of iNOS and COX-2 to varied degrees. (7b) Inhibition Against LPS-Induced NO Production in RAW 264.7 Macrophage The LPS-induced NO production by the macrophages was determined as nitrite concentration in the culture medium according to the Griess reaction. The culture medium of the control and treated cells was collected and centrifuged. An aliquot (100 μL) of the supernatant was mixed with an equal volume of Griess reagent. The absorbance of the mixture at 550 nm was measured with an ELISA plate reader (Dynatech MR-7000; Dynatech Laboratories, Chantilly, Va., USA). […]"}, "COX-2 mRNA": {"tested_on": "COX-2 mRNA", "experiment": "COX-2 mRNA expression in LPS-stimulated RAW264.7 macrophages (RT-PCR)", "type": "cell-based, mouse", "details": "FIG. 12", "procedure": "(§1) Total RNA was isolated from mouse macrophage RAW264.7 cell using Trizol Reagent according to the manufacturer's instructions. Changes in the steady-state concentration of mRNA in iNOS, COX-2, and β-actin (control) were assessed by RT-PCR. Total RNA (2 μg) was converted to cDNA in a series of standard 10 μl reverse transcription reactions. DNA amplification was carried out in “Ready To Go” PCR Beads. The initial conditions were 95° C. for 5 min. Amplification 30 cycles of iNOS were 95° C. for 40 s, 65° C. for 60 s, and 72° C. for 2 min, followed by a 10 min extension at 72° C. The thermal cycle conditions of COX-2 were initiated at 95° C. for […], then 30 cycles of amplification (94° C. for 45 s, 55° C. for 60 s, and 72° C. for 2 min) were performed followed by 10 min extension at 72° C. The PCR products were separated by electrophoresis on a 1% agarose gel and visualized by ethidium bromide staining. Amplification of β-actin served as a control for sample loading and integrity. PCR was performed on the cDNA using the following sense and antisense primer: iNOS, forward primer 5′-[…]-[…]-3′ (2944-2968), reverse primer 5′-[…]-[…]-3′ (3419-3443); COX-2, forward primer 5′-[…]-[…]-3′ (1094-1117), reverse primer 5′-[…]-3′ (1931-1954); β-actin, forward primer 5′-[…]-3′, reverse primer 5′-[…]-3′. Confirmation of the correct amplicons was obtained by direct DNA sequencing of the PCR products."}, "iNOS mRNA": {"tested_on": "iNOS mRNA", "experiment": "iNOS mRNA expression in LPS-stimulated RAW264.7 macrophages (RT-PCR)", "type": "cell-based, mouse", "details": "FIG. 12", "procedure": "as §1"}}, "data": [{"substance": "EGCG-docosapentaenoate [Compound 10a]", "values": [{"measurement": "Inhibition of iNOS protein expression", "setting": "iNOS", "result": "inhibited"}, {"measurement": "Inhibition of NO production (in words)", "setting": "[1]", "result": "inhibited by 10a (EGCG-DPA) more effectively than DPA"}, {"measurement": "Inhibition of PGE2 production", "setting": "PGE2 production", "result": "inhibited"}, {"measurement": "Inhibition of COX-2 protein expression", "setting": "COX-2", "result": "inhibited"}, {"measurement": "Inhibition of COX-2 mRNA expression", "setting": "COX-2 mRNA", "result": "inhibited"}, {"measurement": "Inhibition of iNOS mRNA expression", "setting": "iNOS mRNA", "result": "inhibited"}]}]}
